# Results: patent publication US20110230428A1, “CERTAIN KYNURENINE-3-MONOOXYGENASE INHIBITORS, PHARMACEUTICAL COMPOSITIONS, AND METHODS OF USE THEREOF” (priority 2008, published 2011)
# Target: T1, KMO mouse enzyme (Mus musculus, UniProt Q91WN4)
# T1 construct: KMO enzyme prepared at Evotec from mouse liver (4-6 weeks old) via mitochondria isolation; from tissue; host or cells: mouse liver (4-6 weeks old), isolated mitochondria
# Experiment: KMO mouse enzyme assay: L-Kynurenine hydroxylation to 3OH-KYN by LC/MS
# Format: biochemical
# Details: compound at 10 μM; KMO from mouse liver mitochondria; read-out: INH.Mouse @ 10 μM
# Protocol: A method of monitoring L-Kynurenine (KYN) hydroxylation to form 3-Hydroxy-Kynurenine (3OH-KYN) by LC/MS is described. Product is quantified by multiple reaction monitoring (MRM method).
# • Compound: Stock concentrations: 10 mM in 100% DMSO • Enzyme: KMO enzyme prepared at Evotec from mouse liver (4-6 weeks old) via mitochondria isolation as described in the literature • Substrate: L-Kynurenine (Sigma: Cat# K3750, stock concentration: 10 mM in 100 mM potassium phosphate buffer, pH 7.4)
# • Buffer: 100 mM potassium phosphate, pH 7.4, 200 μM NADPH, 0.4 U/ml G6P-DH (Glucose 6-phosphate Dehydrogenase), 3 mM G6P (D-Glucose 6-phosphate) • Assay Volume: 40 μl • Plate Format: 384 well plate, transparent (Matrix) • Read-Out: product (3OH-KYN) quantification using product specific MRM • Reader: LC/MS/MS
# • prepare serial dilution (factor 3) of compound in 100% DMSO (top concentration=10 mM, 100% DMSO) • [8 points: 10 mM; 3.33 mM; 1.11 mM; 0.37 mM; 0.12 mM; 0.04 mM; 0.0137 mM; 0.0045 mM, 0.0015 mM] • prepare […] solution of each compound concentration (top concentration 300 μM, 3% DMSO) in assay buffer • [concentrations: 300 μM; 100 μM; 33.3 μM; 11.1 μM; 3.70 μM; 1.23 μM; 0.41 μM; 0.137 μM] • prepare substrate (10 mM) at concentration of 1 mM in assay buffer • assay mix: 4 μl compound/well of each concentration+24 μl assaybuffer/well+8 μl KMO mouse enzyme+4 μl 1 mM substrate (final concentration=100 μM) • [final compound top concentration: 30 μM; 0.3% DMSO] • [final compound bottom concentration: 0.0137 μM; 0.3% DMSO] • positive control: 4 μl 50 μM FCE28833 in assay buffer, 0.5% DMSO [final assay concentration=5 μM]+24 μl assaybuffer/well+8 μl KMO mouse enzyme+4 μl 1 mM substrate [final concentration=100 μM] • negative control: 28 μl assay buffer/well+8 μl KMO mouse enzyme+4 μl 1 mM substrate [final concentration=100 μM] • incubate 40 min at RT • add 40 μl/well 10% trichloro acetic acid in water to stop the assay and precipitate protein • centrifuge plate for 3 min at 4000 rpm • product detection by LC/MS (injection of 20 μl/well, 2 fold overfill of the 10 μl sample loop) Data analysis: IC50's are calculated using automated fitting algorithm (A+Analysis).
# Using procedures similar to those described herein, the following compounds were assayed for activity.
# T1 sequence (Q91WN4 whole entry): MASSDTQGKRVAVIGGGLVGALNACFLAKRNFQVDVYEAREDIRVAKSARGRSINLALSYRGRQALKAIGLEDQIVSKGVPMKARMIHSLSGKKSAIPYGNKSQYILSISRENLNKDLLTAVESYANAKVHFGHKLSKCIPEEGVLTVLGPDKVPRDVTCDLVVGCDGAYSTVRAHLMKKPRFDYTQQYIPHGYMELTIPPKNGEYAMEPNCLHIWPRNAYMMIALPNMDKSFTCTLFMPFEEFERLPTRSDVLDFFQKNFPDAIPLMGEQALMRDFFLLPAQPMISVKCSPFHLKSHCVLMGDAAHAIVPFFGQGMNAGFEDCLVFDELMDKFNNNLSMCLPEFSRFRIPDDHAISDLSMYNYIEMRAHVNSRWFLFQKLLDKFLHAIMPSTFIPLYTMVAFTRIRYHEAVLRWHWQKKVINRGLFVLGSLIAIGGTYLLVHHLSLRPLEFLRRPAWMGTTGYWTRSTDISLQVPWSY
row,Compound,inhibition at 10 µM [%]
1,"CON=C(CCc1noc(C)n1)c1ccc(Cl)c(Cl)c1 (single isomer, unassigned) [1-(3,4-Dichloro-phenyl)-3-(5-methyl-[1,2,4]oxadiazol-3-yl)-propan-1-one O-methyl-oxime]",87.2
2,"CON=C(CCc1nc2cnccc2[nH]1)c1ccc(Cl)c(Cl)c1 [1-(3,4-Dichloro-phenyl)-3-(1H-imidazo[4,5-c]pyridin-2-yl)-propan-1-one O-methyl-oxime]",64.3
3,"CO/N=C(\CCc1nn[nH]n1)c1ccc(Cl)c(Cl)c1 [1-(3,4-Dichloro-phenyl)-3-(2H-tetrazol-5-yl)-propan-1-one O-methyl-oxime]",96.4
4,"CON=C(CCC(=O)N1CCC(C)CC1)c1ccc(Cl)c(Cl)c1 [1-(3,4-Dichloro-phenyl)-4-(4-methyl-piperidin-1-yl)-butane-1,4-dione 1-(O-methyl-oxime)]",57.3
5,"CO/N=C(\CCC(=O)N1CCOCC1)c1ccc(Cl)c(Cl)c1 [1-(3,4-Dichloro-phenyl)-4-morpholin-4-yl-butane-1,4-dione 1-(O-methyl-oxime)]",63.4
6,"CON=C(CCC(=O)N1CCCCC1)c1ccc(Cl)c(Cl)c1 [1-(3,4-Dichloro-phenyl)-4-piperidin-1-yl-butane-1,4-dione 1-(O-methyl-oxime)]",60.4
7,"CON=C(CCC(C)=O)c1ccc(Cl)c(Cl)c1 [1-(3,4-Dichloro-phenyl)-pentane-1,4-dione 1-(O-methyl-oxime)]",77.7
8,"CCO/N=C(\CCC(=O)OC)c1ccc(Cl)c(Cl)c1 [4-(3,4-Dichloro-phenyl)-4-ethoxyimino-butyric acid methyl ester]",107
9,"CCO/N=C(\CCC(=O)O)c1ccc(Cl)c(Cl)c1 [4-(3,4-Dichloro-phenyl)-4-ethoxyimino-butyric acid]",107
10,"COC(=O)CCC(=NO)c1ccc(Cl)c(Cl)c1 [4-(3,4-Dichloro-phenyl)-4-hydroxyimino-butyric acid methyl ester]",99.4
11,"CO/N=C(\CCC(=O)N(C)C)c1ccc(Cl)c(Cl)c1 [4-(3,4-Dichloro-phenyl)-4-methoxyimino-N,N-dimethyl-butyramide]",64.3
12,"CO/N=C(\CCC(=O)Nc1cnn(C)c1)c1ccc(Cl)c(Cl)c1 [4-(3,4-Dichloro-phenyl)-4-methoxyimino-N-(1-methyl-1H-pyrazol-4-yl)-butyramide]",90.5
13,"CON=C(CCC(=O)Nc1c(C)cc(C)nc1C)c1ccc(Cl)c(Cl)c1 [4-(3,4-Dichloro-phenyl)-4-methoxyimino-N-(2,4,6-trimethyl-pyridin-3-yl)-butyramide]",66.3
14,"CON=C(CCC(=O)Nc1cnc(C)nc1)c1ccc(Cl)c(Cl)c1 [4-(3,4-Dichloro-phenyl)-4-methoxyimino-N-(2-methyl-pyrimidin-5-yl)-butyramide]",90.4
15,"CON=C(CCC(=O)NCCN1CCOCC1)c1ccc(Cl)c(Cl)c1 [4-(3,4-Dichloro-phenyl)-4-methoxyimino-N-(2-morpholin-4-yl-ethyl)-butyramide]",54.6
16,"CON=C(CCC(=O)Nc1cnccc1C)c1ccc(Cl)c(Cl)c1 [4-(3,4-Dichloro-phenyl)-4-methoxyimino-N-(4-methyl-pyridin-3-yl)-butyramide]",93.9
17,"CON=C(CCC(=O)Nc1cncc(C)c1)c1ccc(Cl)c(Cl)c1 [4-(3,4-Dichloro-phenyl)-4-methoxyimino-N-(5-methyl-pyridin-3-yl)-butyramide]",102
18,"CON=C(CCC(=O)Nc1ccc(C)nn1)c1ccc(Cl)c(Cl)c1 [4-(3,4-Dichloro-phenyl)-4-methoxyimino-N-(6-methyl-pyridazin-3-yl)-butyramide]",90.2

row,Compound,inhibition at 10 µM [%]
1,"CON=C(CCC(=O)Nc1ccc(C)nc1)c1ccc(Cl)c(Cl)c1 [4-(3,4-Dichloro-phenyl)-4-methoxyimino-N-(6-methyl-pyridin-3-yl)-butyramide]",82.9
2,"CON=C(CCC(=O)Nc1nncs1)c1ccc(Cl)c(Cl)c1 [4-(3,4-Dichloro-phenyl)-4-methoxyimino-N-[1,3,4]thiadiazol-2-yl-butyramide]",95.2
3,"CON=C(CCC(=O)N(C)c1cccnc1)c1ccc(Cl)c(Cl)c1 [4-(3,4-Dichloro-phenyl)-4-methoxyimino-N-methyl-N-pyridin-3-yl-butyramide]",62.5
4,"CNC(=O)CC/C(=N\OC)c1ccc(Cl)c(Cl)c1 [4-(3,4-Dichloro-phenyl)-4-methoxyimino-N-methyl-butyramide]",93.7
5,"CON=C(CCC(=O)Nc1ccccc1)c1ccc(Cl)c(Cl)c1 [4-(3,4-Dichloro-phenyl)-4-methoxyimino-N-phenyl-butyramide]",103
6,"CON=C(CCC(=O)Nc1cnccn1)c1ccc(Cl)c(Cl)c1 [4-(3,4-Dichloro-phenyl)-4-methoxyimino-N-pyrazin-2-yl-butyramide]",98
7,"CON=C(CCC(=O)Nc1cccnn1)c1ccc(Cl)c(Cl)c1 [4-(3,4-Dichloro-phenyl)-4-methoxyimino-N-pyridazin-3-yl-butyramide]",101
8,"CO/N=C(\CCC(=O)Nc1ccccn1)c1ccc(Cl)c(Cl)c1 [4-(3,4-Dichloro-phenyl)-4-methoxyimino-N-pyridin-2-yl-butyramide]",104
9,"CON=C(CCC(=O)Nc1cccnc1)c1ccc(Cl)c(Cl)c1 [4-(3,4-Dichloro-phenyl)-4-methoxyimino-N-pyridin-3-yl-butyramide]",103
10,"CON=C(CCC(=O)NCc1cccnc1)c1ccc(Cl)c(Cl)c1 [4-(3,4-Dichloro-phenyl)-4-methoxyimino-N-pyridin-3-ylmethyl-butyramide]",77.1
11,"CON=C(CCC(=O)Nc1ccncc1)c1ccc(Cl)c(Cl)c1 [4-(3,4-Dichloro-phenyl)-4-methoxyimino-N-pyridin-4-yl-butyramide]",76.5
12,"CON=C(CCC(=O)Nc1ncccn1)c1ccc(Cl)c(Cl)c1 [4-(3,4-Dichloro-phenyl)-4-methoxyimino-N-pyrimidin-2-yl-butyramide]",101
13,"CON=C(CCC(=O)Nc1cncnc1)c1ccc(Cl)c(Cl)c1 [4-(3,4-Dichloro-phenyl)-4-methoxyimino-N-pyrimidin-5-yl-butyramide]",98.5
14,"CON=C(CCC(=O)NC1CCNC1)c1ccc(Cl)c(Cl)c1 (stereo not drawn) [4-(3,4-Dichloro-phenyl)-4-methoxyimino-N-pyrrolidin-3-yl-butyramide]",74.3
15,"CON=C(CCC(N)=O)c1ccc(Cl)c(Cl)c1 [4-(3,4-Dichloro-phenyl)-4-methoxyimino-butyramide]",94.9
16,"CON=C(CCC(=O)OC[C@H](O)[C@H]1OC(=O)C(O)=C1O)c1ccc(Cl)c(Cl)c1 [4-(3,4-Dichloro-phenyl)-4-methoxyimino-butyric acid (S)-2-((R)-3,4-dihydroxy-5-oxo-2,5-dihydro-furan-2-yl)-2-hydroxy-ethyl ester]",102
17,"CO/N=C(\CCC(=O)OC1CCC1)c1ccc(Cl)c(Cl)c1 [4-(3,4-Dichloro-phenyl)-4-methoxyimino-butyric acid cyclobutyl ester]",102
18,"CO/N=C(\CCC(=O)OC1CCCC1)c1ccc(Cl)c(Cl)c1 [4-(3,4-Dichloro-phenyl)-4-methoxyimino-butyric acid cyclopentyl ester]",102
